Data set [1] has as its system Mus musculus. In words: Anti-osteoporosis activity in ovariectomized C57BL/6 mouse assessed as prevention of bone loss by measuring decrease in trabecular spacing at 25 ug/kg, sc administered every day for 6 weeks by micro-CT analysis relative to control. Format: functional. Also noted: scale not given: the % may be the effect or the level left.
Data set [2] in a line: Toxicity in ovariectomized female C57BL/6 mouse assessed as reduction in body weight at 25 ug/kg, sc administered every day for 6 weeks. Format: organism-based. The following applies: in vivo, 0.025 mg/kg, 1008 h, dose 25 µg/kg.
Data set [3] deals with Mus musculus. In words: Anti-osteoporosis activity in ovariectomized C57BL/6 mouse assessed as prevention of bone loss by measuring increase in trabecular thickness at 25 ug/kg, sc administered every day for 6 weeks by micro-CT analysis relative to control. In kind it is functional.
Data set [4] concerns Mus musculus. In words: Anti-osteoporosis activity in ovariectomized C57BL/6 mouse assessed as prevention of bone loss by measuring increase in trabecular number at 25 ug/kg, sc administered every day for 6 weeks by micro-CT analysis relative to control. In kind it is functional.
Data set [5] deals with Mus musculus. Nature of the data set: Anti-osteoporosis activity in ovariectomized C57BL/6 mouse assessed as prevention of bone loss by measuring increase in BV/TV at 25 ug/kg, sc administered every day for 6 weeks by micro-CT analysis relative to control. Format: functional. The following applies: dose 25 µg/kg.
Data set [6] has as its system BMMC. Nature of the data set: Anti-osteoclastogenesis activity in M-CSF/RANKL-induced C57BL/6J mouse BMMC cells assessed as inhibition of osteoclast differentiation at 10 uM incubated for 7 days by TRAP staining based analysis relative to control. Format: functional. Particulars: 168 h, time 7 day.
Data set [7] has as its system BMMC. In words: Anti-osteoclastogenesis activity in M-CSF/RANKL-induced C57BL/6J mouse BMMC cells assessed as inhibition of osteoclast differentiation incubated for 7 days by TRAP staining based analysis. The following applies: 168 h. In kind it is functional, cell-based.
Data set [8] in a line: Cytotoxicity against M-CSF induced C57BL/6J mouse BMMC cells assessed as cell viability at 10 uM incubated for 48 hrs by CCK-8 assay relative to control. Format: toxicity, cell-based. The following applies: read-out: Activity. Background: Tetrazolium dyes change colour on reduction, which living cells bring about.
Data set [9] has as its system BMMC. In words: Anti-osteoclastogenesis activity in M-CSF/RANKL-induced C57BL/6J mouse BMMC cells assessed as inhibition of osteoclast differentiation at 5 uM incubated for 7 days by TRAP staining based analysis relative to control. In kind it is functional. The following applies: 168 h, time 7 day.
Data set [10] relates to BMMC. Nature of the data set: Anti-osteoclastogenesis activity in M-CSF/RANKL-induced C57BL/6J mouse BMMC cells assessed as inhibition of osteoclast differentiation at 1 uM incubated for 7 days by TRAP staining based analysis relative to control. In kind it is functional. The following applies: 168 h, time 7 day.

Where only a bound is given, the exact number is not on record here.

Turning to `CC[C@H](C)[C@H](NC(=O)[C@H](CCC(=O)O)NC(=O)[C@H](CO)NC(=O)[C@@H](NC(=O)[C@@H](N)CO)C(C)C)C(=O)N[C@@H](CCC(N)=O)C(=O)N[C@@H](CC(C)C)C(=O)N[C@@H](CCSC)C(=O)N[C@@H](Cc1cnc[nH]1)C(=O)N[C@@H](CC(N)=O)C(=O)N[C@@H](CC(C)C)C(=O)NCC(=O)N[C@@H](CCCCN)C(=O)N[C@@H](Cc1cnc[nH]1)C(=O)N[C@@H](CC(C)C)C(=O)N[C@@H](CC(N)=O)C(=O)N[C@@H](CO)C(=O)N[C@@H](CCSC)C(=O)N[C@@H](CCC(=O)O)C(=O)N[C@@H](CCCNC(=N)N)C(=O)N[C@H](C(=O)N[C@@H](CCC(=O)O)C(=O)N[C@@H](Cc1c[nH]c2ccccc12)C(=O)N[C@@H](CC(C)C)C(=O)N[C@@H](CCCNC(=N)N)C(=O)N[C@@H](CCCCN)C(=O)N[C@@H](CCCCN)C(=O)N[C@@H](CC(C)C)C(=O)N[C@@H](CCC(N)=O)C(=O)N[C@@H](CC(=O)O)C(=O)N[C@H](C(=O)N[C@@H](Cc1cnc[nH]1)C(=O)N[C@@H](CC(N)=O)C(=O)N[C@@H](Cc1ccccc1)C(=O)O)C(C)C)C(C)C` [TERIPARATIDE], the Activity in data set [1] is 52.76%; in data set [2], “Non-Toxic”; in data set [3] it was 86.08%; in data set [4], 41.75%; in data set [5], 81.68%.
As to `C[C@H](CO)[C@H]1CC[C@H]2[C@@H]3CCC4=CC(=O)CC[C@]4(C)[C@H]3CC[C@]12C`, the inhibition at 10 µM in data set [6] amounted to 100%. In addition, the IC50 in data set [7] was found to be 2320 nM. In addition, the viability at 48 h, 10 µM in data set [8] was no less than 100%. Also, the inhibition at 5 µM in data set [9] is 78.6%.
As for `C[C@H](CO)[C@H]1CC[C@H]2[C@@H]3CC=C4C(C)(C)c5c(cnn5-c5ccccc5)C[C@]4(C)[C@H]3CC[C@]12C`, the inhibition at 10 µM in data set [6] was 18.9%. For the same compound, the inhibition at 1 µM in [10] turned out to be 0%. Further, in [8], the viability at 48 h, 10 µM was no less than 100%. Also, the inhibition at 5 µM in data set [9] worked out at 0%.
Take `C[C@H](CO)[C@H]1CC[C@H]2[C@@H]3CC=C4C(C)(C)c5[nH]ncc5C[C@]4(C)[C@H]3CC[C@]12C`: the inhibition at 10 µM in data set [6] was 100%. Besides, in data set [10], the inhibition at 1 µM was 34.6%. The viability at 48 h, 10 µM in [8] was no less than 100%. Moreover, in [9], the inhibition at 5 µM turned out to be 87%.
The matching figures for `C[C@H](CO)[C@H]1CC[C@H]2[C@@H]3CC=C4C(C)(C)c5nonc5C[C@]4(C)[C@H]3CC[C@]12C`: 100%, 42.4%, no less than 100% and 90.5%.

Broadly, the inhibition is the relative decrease from the control value, in per cent. By IC50 is commonly meant the concentration that inhibits the measured activity by half.

The values above are taken from ChEMBL document CHEMBL5506037, “Synthesis of Heterocyclic Ring-Fused Bisnoralcohol Derivatives as Novel Small-Molecule Antiosteoporosis Agents” (J Med Chem, 2024).
